# Experimental data: ChEMBL document CHEMBL3632576, “Tacrine-Trolox Hybrids: A Novel Class of Centrally Active, Nonhepatotoxic Multi-Target-Directed Ligands Exerting Anticholinesterase and Antioxidant Activities with Low In Vivo Toxicity” (J Med Chem, 2015)
# Calls of active or inactive are those of the source. The rule behind the calls is not given here.
# What was measured:
# in vitro = settings: human, HepG2 cells
# Description: Hepatotoxicity in human HepG2 cells assessed as cell viability after 24 hrs by MTT assay
# Acetylcholinesterase [1] = target: T1, Acetylcholinesterase (Homo sapiens, UniProt P22303)
# T1 sequence (P22303 whole entry): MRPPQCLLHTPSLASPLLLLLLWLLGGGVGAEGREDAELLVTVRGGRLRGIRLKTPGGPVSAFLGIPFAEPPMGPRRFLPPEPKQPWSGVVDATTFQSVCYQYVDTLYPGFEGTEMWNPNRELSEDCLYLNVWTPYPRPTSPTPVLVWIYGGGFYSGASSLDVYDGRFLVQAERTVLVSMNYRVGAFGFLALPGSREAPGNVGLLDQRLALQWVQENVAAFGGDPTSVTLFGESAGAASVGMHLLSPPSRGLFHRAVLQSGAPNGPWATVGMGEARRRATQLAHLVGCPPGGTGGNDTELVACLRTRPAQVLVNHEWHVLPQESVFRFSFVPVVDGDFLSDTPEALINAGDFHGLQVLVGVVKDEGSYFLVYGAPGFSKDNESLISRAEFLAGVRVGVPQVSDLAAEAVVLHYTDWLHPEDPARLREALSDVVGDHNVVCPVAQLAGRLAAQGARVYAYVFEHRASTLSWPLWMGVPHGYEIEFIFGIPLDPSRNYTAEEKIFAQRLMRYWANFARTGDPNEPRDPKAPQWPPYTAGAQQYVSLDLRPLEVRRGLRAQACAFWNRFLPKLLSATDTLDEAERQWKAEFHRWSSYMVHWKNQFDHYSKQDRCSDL
# Description: Inhibition of human recombinant AChE using acetylthiocholine as substrate preincubated for 5 mins followed by substrate addition measured every 2 mins by Ellman's method
# Cholinesterase = Cholinesterase (Homo sapiens, UniProt P06276)
# Cholinesterase, sequence (P06276 whole entry): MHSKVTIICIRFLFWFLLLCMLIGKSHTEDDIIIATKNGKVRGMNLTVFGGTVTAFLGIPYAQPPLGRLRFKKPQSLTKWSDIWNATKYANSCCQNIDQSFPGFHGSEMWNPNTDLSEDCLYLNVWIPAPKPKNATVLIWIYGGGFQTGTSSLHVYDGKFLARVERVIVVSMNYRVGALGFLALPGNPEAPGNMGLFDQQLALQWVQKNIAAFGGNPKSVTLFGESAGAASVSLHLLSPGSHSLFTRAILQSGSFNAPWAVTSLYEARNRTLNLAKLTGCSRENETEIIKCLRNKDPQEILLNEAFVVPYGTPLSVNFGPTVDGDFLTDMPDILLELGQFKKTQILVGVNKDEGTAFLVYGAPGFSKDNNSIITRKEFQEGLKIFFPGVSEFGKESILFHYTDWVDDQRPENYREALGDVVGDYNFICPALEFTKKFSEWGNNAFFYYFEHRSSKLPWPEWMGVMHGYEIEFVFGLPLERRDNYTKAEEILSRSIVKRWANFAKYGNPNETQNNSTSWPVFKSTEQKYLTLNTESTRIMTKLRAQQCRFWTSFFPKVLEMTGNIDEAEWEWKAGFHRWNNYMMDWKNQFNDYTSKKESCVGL
# Description: Inhibition of human plasmatic BChE using butyrylthiocholine as substrate preincubated for 5 mins followed by substrate addition measured every 2 mins by Ellman's method
# HepG2 [2] = experiment: Hepatotoxicity in human HepG2 cells assessed as cell viability at 2 uM after 24 hrs by MTT assay; assay type: toxicity, cell-based; settings: hepg2, 24 h
# Liver microsome [3] = experiment: Retention time of the compound in human liver microsomes by LC-MS/MS analysis; assay type: ADME
# Acetylcholinesterase [4] = target: T1, Acetylcholinesterase; settings: 100 to 562 nM
# [5] = Acute toxicity in im dosed albino Wistar rat assessed as mortality measured within 48 hrs; assay type: organism-based; settings: in vivo
# Acetylcholinesterase [6] = target: T1, Acetylcholinesterase; experiment: Competitive inhibition of human recombinant AChE using acetylthiocholine as substrate preincubated for 5 mins followed by substrate addition measured every 2 mins by Lineweaver-Burk plot analysis
# [7] = Metabolic stability in human liver microsomes assessed as compound remaining at 1 ug/ml after 1 hr by LC-MS/MS analysis; assay type: ADME; settings: read-out: Stability
# Liver microsome [8] = experiment: Drug metabolism in human liver microsomes assessed as decrease in 8-(6-chloro-1,2,3,4-tetrahydroacridin-9-ylamino)octanoic acid AUC after 1 hr by extracted ion chromatogram analysis; assay type: ADME
# [9] = Permeability of the compound at 50 to 100 uM after 18 hrs by PAMPA; assay type: physicochemical; settings: read-out: permeability
# [10] = Metabolic stability in human liver microsomes assessed as compound remaining at 20 ug/ml after 1 hr by LC-MS/MS analysis; assay type: ADME; settings: read-out: Stability
# [11] = Metabolic stability in human liver microsomes assessed as compound remaining at 50 ug/ml after 1 hr by LC-MS/MS analysis; assay type: ADME; settings: read-out: Stability
# HepG2 [12] = experiment: Hepatotoxicity in human HepG2 cells assessed as cell viability at 0.5 uM after 24 hrs by MTT assay; assay type: toxicity, cell-based; settings: hepg2, 24 h
# HepG2 [13] = experiment: Hepatotoxicity in human HepG2 cells assessed as cell viability at 512 uM after 24 hrs by MTT assay; assay type: toxicity, cell-based; settings: hepg2, 24 h
SMILES,EC50 [µM],IC50 (Acetylcholinesterase [1]) [nM],IC50 (Cholinesterase) [µM],other results
Cc1c(C)c2c(c(C)c1O)CCC(C)(C(=O)NCCCNc1c3c(nc4ccccc14)CCCC3)O2 (stereo not given),51.3,260,0.08,IC50 at 24 h (in vitro): 13.2 µM
COc1ccc2nc3c(c(NCCCNC(=O)C4(C)CCc5c(C)c(O)c(C)c(C)c5O4)c2c1)CCCC3 (stereo not given),> 100,1540,0.62,Activity (HepG2 [2]): Non-toxic
Cc1c(C)c2c(c(C)c1O)CCC(C)(C(=O)NCCCCCCCCNc1c3c(nc4ccccc14)CCCC3)O2 (stereo not given),66.5,690,0.16,
COc1ccc2nc3c(c(NCCCCCCNC(=O)C4(C)CCc5c(C)c(O)c(C)c(C)c5O4)c2c1)CCCC3 (stereo not given),58.8,6610,0.69,
CC1=C(C)C(=O)C(CCC(C)(O)C(=O)NCCCCCCCCNc2c3c(nc4cc(Cl)ccc24)CCCC3)=C(C)C1=O (stereo not given),,,,Retention_time (Liver microsome [3]): 7.35 min
Cc1c(C)c2c(c(C)c1O)CCC(C)(C(=O)NCCCNc1c3c(nc4cc(Cl)ccc14)CCCC3)O2 (stereo not given),48.8,80,0.77,
Cc1c(C)c2c(c(C)c1O)CCC(C)(C(=O)NCCCCCNc1c3c(nc4cc(Cl)ccc14)CCCC3)O2 (stereo not given),49.8,120,0.13,
Cc1c(C)c2c(c(C)c1O)CCC(C)(C(=O)NCCCCCCNc1c3c(nc4cc(Cl)ccc14)CCCC3)O2 (stereo not given),48.8,100,0.4,IC50 at 24 h (in vitro): 0.7 µM
Cc1c(C)c2c(c(C)c1O)CCC(C)(C(=O)NCCCCCCNc1c3c(nc4ccccc14)CCCC3)O2 (stereo not given),61.8,360,0.19,IC50 at 24 h (in vitro): 2 µM
COc1ccc2nc3c(c(NCCNC(=O)C4(C)CCc5c(C)c(O)c(C)c(C)c5O4)c2c1)CCCC3 (stereo not given),95.9,4360,1.3,IC50 at 24 h (in vitro): 4.9 µM
OCCCCCCCCNc1c2c(nc3cc(Cl)ccc13)CCCC2,,,,Retention_time (Liver microsome [3]): 6.56 min
COc1ccc2nc3c(c(NCCCCCCCCNC(=O)C4(C)CCc5c(C)c(O)c(C)c(C)c5O4)c2c1)CCCC3 (stereo not given),> 100,3480,1.53,IC50 at 24 h (in vitro): 0.92 µM
Cc1c(C)c2c(c(C)c1O)CCC(C)(C(=O)NCCCCCCCNc1c3c(nc4ccccc14)CCCC3)O2 (stereo not given),> 100,690,0.13,
Cc1c(C)c2c(c(C)c1O)CCC(C)(C(=O)NCCNc1c3c(nc4cc(Cl)ccc14)CCCC3)O2 (stereo not given),67.8,210,0.02,
Cc1c(C)c2c(c(C)c1O)CCC(C)(C(=O)NCCCCNc1c3c(nc4cc(Cl)ccc14)CCCC3)O2 (stereo not given),50.8,150,0.09,
Cc1c(C)c2c(c(C)c1O)CCC(C)(C(=O)NCCCCCCCCNc1c3c(nc4cc(Cl)ccc14)CCCC3)O2 (stereo not given),44.1,80,0.54,"inhibition (Acetylcholinesterase [4]): Active; LD50 at 48 h [5]: > 500 mg/kg; Retention_time (Liver microsome [3]): 7.52 min; Ki (Acetylcholinesterase [6]): 49.5 nM; remaining at 1 h, 1 ug/ml [7]: 58.2%; Drug metabolism (Liver microsome [8]): 3.1%; Papp at 18 h, 100 µM [9]: 5 ×10⁻⁶ cm/s; remaining at 1 h, 20 ug/ml [10]: 85.5%; remaining at 1 h, 50 ug/ml [11]: 85.4%; Activity (HepG2 [12]): Non-toxic"
Cc1c(C)c2c(c(C)c1O)CCC(C)(C(=O)NCCCCCCCNc1c3c(nc4cc(Cl)ccc14)CCCC3)O2 (stereo not given),44.2,80,0.7,Activity (HepG2 [12]): Non-toxic
COc1ccc2nc3c(c(N)c2c1)CCCC3,> 100,,,IC50 at 24 h (in vitro): 11.5 µM
Nc1c2c(nc3cc(Cl)ccc13)CCCC2,> 100,,,IC50 at 24 h (in vitro): 7.13 µM; LD50 at 48 h [5]: 7.5 mg/kg
Cc1c(C)c2c(c(C)c1O)CCC(C)(C(=O)O)O2 (stereo not given) [TROLOX],16.2,186000,> 1000,Activity (HepG2 [13]): Non-toxic
Cc1c(C)c2c(c(C)c1O)CCC(C)(C(=O)NCCNc1c3c(nc4ccccc14)CCCC3)O2 (stereo not given),> 100,6970,0.06,"Papp at 18 h, 100 µM [9]: 4.4 ×10⁻⁶ cm/s"
O=C(O)CCCCCCCNc1c2c(nc3cc(Cl)ccc13)CCCC2,,,,Retention_time (Liver microsome [3]): 6.52 min
Cc1c(C)c2c(c(C)c1O)CCC(C)(C(=O)NCCCCNc1c3c(nc4ccccc14)CCCC3)O2 (stereo not given),> 100,950,0.08,
Cc1c(C)c2c(c(C)c1O)CCC(C)(C(=O)NCCCCCNc1c3c(nc4ccccc14)CCCC3)O2 (stereo not given),65.6,620,0.56,IC50 at 24 h (in vitro): 8.7 µM
COc1ccc2nc3c(c(NCCCCCNC(=O)C4(C)CCc5c(C)c(O)c(C)c(C)c5O4)c2c1)CCCC3 (stereo not given),62.7,13300,0.4,
COc1ccc2nc3c(c(NCCCCCCCNC(=O)C4(C)CCc5c(C)c(O)c(C)c(C)c5O4)c2c1)CCCC3 (stereo not given),59,6720,0.7,
CC1=C(C)C(=O)C(CCC(C)(O)C(=O)NC(O)CCCCCCCNc2c3c(nc4cc(Cl)ccc24)CCCC3)=C(C)C1=O (stereo not given),,,,Retention_time (Liver microsome [3]): 7.1 min
COc1ccc2nc3c(c(NCCCCNC(=O)C4(C)CCc5c(C)c(O)c(C)c(C)c5O4)c2c1)CCCC3 (stereo not given),> 100,7210,0.29,
